Calls of active or inactive are those of the source.
Assays:
[1] = HepG2 cell cytotoxicity, dose response, cytotoxicity control, plate reader, cherry-pick, antagonist series (AID 743416); type: functional, cell-based
[2] = A549 cell cytotoxicity, dose response, cytotoxicity control, plate reader, cherry-pick, antagonist series (AID 743412); type: functional, cell-based
[3] = LGR2 antagonists, dose response, cell-based, HEK293, CRE-luciferase reporter, cherry pick, set 2 (AID 743343); type: functional;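 note: transfected cells were stimulated with diluted bursicon conditioned medium after compound addition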
[4] = MC4R antagonists, dose response, counter-screen for LGR2 antagonist project, cell-based, plate reader, cherry pick (AID 743444); type: functional;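 note: transfected HEK 293 cells stimulated with alpha-MSH peptide; potency of inhibitors of the alpha-MSH evoked signal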
[5] = T. cruzi growth inhibition in host cells, dose response, cell-based, plate reader, dry powder, set 2 (AID 652275); type: functional
[6] = HepG2 cell cytotoxicity, dose response, cytotoxicity control, plate reader, dry powder samples (AID 1159569); type: functional, cell-based;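 note: inhibitor potency with signal falling toward the positive control level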
[7] = P. falciparum ATP4 D1247Y mutant growth inhibitors, dose response, NITD609-resistant line, SYBR Green, dry powder (AID 1159571); type: functional, cell-based;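 note: parasites synchronized at ring stage by sorbitol before testing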
[8] = P. falciparum Dd2 growth inhibitors, dose response, SYBR Green, cherry-picked samples (AID 1159567); type: functional, cell-based
[9] = P. falciparum 3D7-ScDHODH growth inhibitors, dose response, SYBR Green, dry powder samples (AID 1159570); type: functional, cell-based;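 note: parasite growth measured after 72 hours of compound exposure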
[10] = P. falciparum Dd2 growth inhibitors, dose response, SYBR Green, dry powder samples (AID 1159566); type: functional, cell-based;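 note: potency for growth inhibition with lower SYBR green DNA signal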
[11] = control 3'UTR Renilla luciferase suppression, dose response, counter-screen for Shn3 inhibitor project, cell-based, Clone20-Shn3RL, cherry-picked (AID 624133); type: functional
[12] = target: T1, COUP transcription factor 2 (Homo sapiens, UniProt P24468); assay: Luminescence-based cell-based high throughput dose response assay to identify inhibitors of COUP-TFII (NR2F2).; type: functional;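 note: HEK293 cells transiently cotransfected with COUP-TFII expression vector and reporter; luciferase reporter luminescence driven by COUP-TFII from the pX2-168 reporter plasmid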
T1 sequence (P24468 whole entry): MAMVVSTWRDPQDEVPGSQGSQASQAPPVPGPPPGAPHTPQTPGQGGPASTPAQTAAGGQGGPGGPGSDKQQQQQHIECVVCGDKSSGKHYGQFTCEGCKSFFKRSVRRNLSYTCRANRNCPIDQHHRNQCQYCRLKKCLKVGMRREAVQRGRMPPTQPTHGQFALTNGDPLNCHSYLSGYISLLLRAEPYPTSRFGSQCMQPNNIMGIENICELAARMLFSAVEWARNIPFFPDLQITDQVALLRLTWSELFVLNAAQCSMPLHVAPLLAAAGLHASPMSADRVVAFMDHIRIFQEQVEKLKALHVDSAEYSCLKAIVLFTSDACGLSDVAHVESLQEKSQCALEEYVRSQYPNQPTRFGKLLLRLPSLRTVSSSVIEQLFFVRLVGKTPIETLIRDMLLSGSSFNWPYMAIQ

[13] = Shn3 3'UTR reporter inhibitors, dose response, cell-based, Clone20 osteoblasts, firefly luciferase, cherry-picked (AID 624132); type: functional;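 note: firefly luciferase luminescence from reporter carrying the Shn3 3'UTR in osteoblasts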
[14] = HepG2 cell cytotoxicity, dose response, cytotoxicity control for Shn3 inhibitor project, CellTiter-Glo, cherry-picked (AID 624134); type: functional, cell-based
[15] = cytotoxicity in HEK-293T cells, dose response, cytotoxicity control for TCR NF-kB inhibitor project, luminescence, T-cell screen hits (AID 489026); type: functional, cell-based;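 note: cells exposed to compound about 14 hours before the viability readout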
[16] = target: Peroxisome proliferator-activated receptor gamma/Nuclear receptor coactivator 3 (Homo sapiens, UniProt P37231); assay: TR-FRET dose response biochemical High Throughput Screening assay for agonists of the steroid receptor coactivator 3 (SRC-3) recruitment by the peroxisome proliferator-activated receptor gamma (PPAR gamma): non-selective agonists. [Related pubchem assays: 1301 (Confirmation screen.), 1048 (Primary screen.)]; type: functional
[17] = target: Peroxisome proliferator-activated receptor gamma/Nuclear receptor coactivator 2 (Homo sapiens, UniProt P37231); assay: (§1) TR-FRET dose response biochemical High Throughput Screening assay for agonists of the steroid receptor coactivator 2 (SRC-2) recruitment by the peroxisome proliferator-activated receptor gamma (PPAR gamma): non-selective agonists. [Related pubchem assays: 1297, 1032 ]; type: functional
[18] = target: Mitogen-activated protein kinase 10 (Homo sapiens, UniProt P53779); assay: Dose response biochemical screening assay for inhibitors of c-Jun N-Terminal Kinase 3 (JNK3). [Related pubchem assays: 746 ]
[19] = target: Peroxisome proliferator-activated receptor gamma/Nuclear receptor coactivator 1 (Homo sapiens, UniProt P37231); assay: as §1, with “1 (SRC-1)” for “2 (SRC-2)”, “assays (depositor defined):AID1300, AID1808, AID504735, AID631]” for “assays: 1297, 1032 ]”; type: protein assay
[20] = target: Disintegrin and metalloproteinase domain-containing protein 17 (Homo sapiens, UniProt P78536); assay: exosite inhibitors of ADAM17, dose response, biochemical (AID 743260)
[21] = ADAM10 protease inhibitors, dose response, selectivity assay for ADAM17 exosite inhibitor project, biochemical, FRET peptide substrate, recombinant human ADAM10 (AID 743259);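 note: ADAM10 enzyme cleaving a FRET peptide substrate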
[22] = HepG2 cell cytotoxicity, dose response, cytotoxicity control, cherry-picked samples (AID 1159577); type: functional, cell-based
[23] = cytotoxicity in OVCAR8 ovarian cancer cells, dose response, PAX8 project, cell-based, plate reader, dry powder samples (AID 743197); type: functional; details: OVCAR-8
[24] = target: Paired box protein Pax-8 (Homo sapiens, UniProt Q06710); assay: inhibitors of PAX8-driven TPO luciferase reporter, dose response, RMG-I cells, cherry-pick (AID 687027); type: functional, cell-based;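 note: luciferase reporter driven by Pax8 target thyroperoxidase promoter measured by SteadyGlo luminescence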
[25] = target: NAD-dependent protein deacylase sirtuin-5, mitochondrial (Homo sapiens, UniProt Q9NXA8); assay: SIRT5 desuccinylase inhibitors, dose response, biochemical, fluorescence imaging, cherry-pick, set 5 (AID 720591);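 note: desuccinylation of succinyl peptide AMC substrate read as fluorescence after trypsin release; potency of inhibitors that lower fluorescence and may act on trypsin instead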
Chain of NAD-dependent protein deacylase sirtuin-5, mitochondrial (Q9NXA8 whole entry): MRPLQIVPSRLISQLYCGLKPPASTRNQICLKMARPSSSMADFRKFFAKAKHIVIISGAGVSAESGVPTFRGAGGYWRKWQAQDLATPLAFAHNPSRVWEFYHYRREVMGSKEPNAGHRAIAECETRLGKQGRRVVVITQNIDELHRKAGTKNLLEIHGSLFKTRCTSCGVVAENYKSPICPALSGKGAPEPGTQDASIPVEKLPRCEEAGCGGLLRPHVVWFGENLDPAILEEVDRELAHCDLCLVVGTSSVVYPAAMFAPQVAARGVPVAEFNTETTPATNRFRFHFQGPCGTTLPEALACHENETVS

Chain of Mitogen-activated protein kinase 10 (P53779 whole entry): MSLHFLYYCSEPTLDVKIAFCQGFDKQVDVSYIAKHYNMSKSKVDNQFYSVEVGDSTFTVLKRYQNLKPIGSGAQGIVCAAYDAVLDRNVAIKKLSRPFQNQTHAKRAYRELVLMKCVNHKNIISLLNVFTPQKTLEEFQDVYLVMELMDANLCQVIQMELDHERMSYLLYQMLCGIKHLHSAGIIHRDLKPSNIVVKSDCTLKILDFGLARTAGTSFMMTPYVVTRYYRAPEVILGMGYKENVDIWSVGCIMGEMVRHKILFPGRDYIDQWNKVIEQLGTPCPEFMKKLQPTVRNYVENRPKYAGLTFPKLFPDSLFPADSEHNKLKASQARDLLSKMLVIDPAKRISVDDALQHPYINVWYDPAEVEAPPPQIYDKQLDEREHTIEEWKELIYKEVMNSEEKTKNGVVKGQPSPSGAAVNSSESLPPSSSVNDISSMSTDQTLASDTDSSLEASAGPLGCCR
Chain of Disintegrin and metalloproteinase domain-containing protein 17 (P78536 whole entry, the tested form may be a part): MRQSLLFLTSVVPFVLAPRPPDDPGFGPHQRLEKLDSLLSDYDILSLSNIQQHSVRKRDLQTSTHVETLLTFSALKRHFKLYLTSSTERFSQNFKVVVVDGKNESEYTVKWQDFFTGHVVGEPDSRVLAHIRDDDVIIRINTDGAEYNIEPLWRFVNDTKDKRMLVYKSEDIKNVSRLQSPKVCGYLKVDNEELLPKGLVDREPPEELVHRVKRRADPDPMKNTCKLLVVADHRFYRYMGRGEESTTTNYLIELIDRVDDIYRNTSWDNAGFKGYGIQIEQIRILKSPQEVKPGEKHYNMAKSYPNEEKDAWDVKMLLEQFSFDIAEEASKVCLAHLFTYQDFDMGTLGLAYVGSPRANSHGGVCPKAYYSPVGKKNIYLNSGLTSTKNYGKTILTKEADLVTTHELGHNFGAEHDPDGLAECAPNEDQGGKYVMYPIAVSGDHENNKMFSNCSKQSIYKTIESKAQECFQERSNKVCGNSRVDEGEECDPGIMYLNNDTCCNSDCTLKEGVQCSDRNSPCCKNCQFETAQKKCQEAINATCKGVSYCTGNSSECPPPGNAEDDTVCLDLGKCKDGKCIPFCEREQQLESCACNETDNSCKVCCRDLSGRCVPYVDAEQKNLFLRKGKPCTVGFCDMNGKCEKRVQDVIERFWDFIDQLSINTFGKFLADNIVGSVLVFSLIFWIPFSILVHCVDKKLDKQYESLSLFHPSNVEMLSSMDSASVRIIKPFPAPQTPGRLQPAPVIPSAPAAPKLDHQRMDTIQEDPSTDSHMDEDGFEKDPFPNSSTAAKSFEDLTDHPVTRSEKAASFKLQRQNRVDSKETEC
Chain of Peroxisome proliferator-activated receptor gamma/Nuclear receptor coactivator 3 (P37231 whole entry): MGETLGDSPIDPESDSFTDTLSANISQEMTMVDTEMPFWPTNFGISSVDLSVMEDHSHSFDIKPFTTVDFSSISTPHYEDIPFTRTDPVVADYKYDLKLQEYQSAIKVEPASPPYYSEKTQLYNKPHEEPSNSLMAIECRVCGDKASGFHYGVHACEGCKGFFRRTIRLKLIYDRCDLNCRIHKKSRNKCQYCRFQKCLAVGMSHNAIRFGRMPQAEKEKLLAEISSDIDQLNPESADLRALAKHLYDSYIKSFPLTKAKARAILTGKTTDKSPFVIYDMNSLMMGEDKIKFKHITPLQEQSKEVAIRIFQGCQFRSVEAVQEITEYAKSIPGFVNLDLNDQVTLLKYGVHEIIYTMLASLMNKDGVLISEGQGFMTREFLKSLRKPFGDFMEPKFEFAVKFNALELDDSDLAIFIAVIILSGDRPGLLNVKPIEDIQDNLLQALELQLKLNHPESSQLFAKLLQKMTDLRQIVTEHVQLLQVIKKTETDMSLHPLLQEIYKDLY
Chain of Peroxisome proliferator-activated receptor gamma/Nuclear receptor coactivator 3 (Q9Y6Q9 whole entry, further chain): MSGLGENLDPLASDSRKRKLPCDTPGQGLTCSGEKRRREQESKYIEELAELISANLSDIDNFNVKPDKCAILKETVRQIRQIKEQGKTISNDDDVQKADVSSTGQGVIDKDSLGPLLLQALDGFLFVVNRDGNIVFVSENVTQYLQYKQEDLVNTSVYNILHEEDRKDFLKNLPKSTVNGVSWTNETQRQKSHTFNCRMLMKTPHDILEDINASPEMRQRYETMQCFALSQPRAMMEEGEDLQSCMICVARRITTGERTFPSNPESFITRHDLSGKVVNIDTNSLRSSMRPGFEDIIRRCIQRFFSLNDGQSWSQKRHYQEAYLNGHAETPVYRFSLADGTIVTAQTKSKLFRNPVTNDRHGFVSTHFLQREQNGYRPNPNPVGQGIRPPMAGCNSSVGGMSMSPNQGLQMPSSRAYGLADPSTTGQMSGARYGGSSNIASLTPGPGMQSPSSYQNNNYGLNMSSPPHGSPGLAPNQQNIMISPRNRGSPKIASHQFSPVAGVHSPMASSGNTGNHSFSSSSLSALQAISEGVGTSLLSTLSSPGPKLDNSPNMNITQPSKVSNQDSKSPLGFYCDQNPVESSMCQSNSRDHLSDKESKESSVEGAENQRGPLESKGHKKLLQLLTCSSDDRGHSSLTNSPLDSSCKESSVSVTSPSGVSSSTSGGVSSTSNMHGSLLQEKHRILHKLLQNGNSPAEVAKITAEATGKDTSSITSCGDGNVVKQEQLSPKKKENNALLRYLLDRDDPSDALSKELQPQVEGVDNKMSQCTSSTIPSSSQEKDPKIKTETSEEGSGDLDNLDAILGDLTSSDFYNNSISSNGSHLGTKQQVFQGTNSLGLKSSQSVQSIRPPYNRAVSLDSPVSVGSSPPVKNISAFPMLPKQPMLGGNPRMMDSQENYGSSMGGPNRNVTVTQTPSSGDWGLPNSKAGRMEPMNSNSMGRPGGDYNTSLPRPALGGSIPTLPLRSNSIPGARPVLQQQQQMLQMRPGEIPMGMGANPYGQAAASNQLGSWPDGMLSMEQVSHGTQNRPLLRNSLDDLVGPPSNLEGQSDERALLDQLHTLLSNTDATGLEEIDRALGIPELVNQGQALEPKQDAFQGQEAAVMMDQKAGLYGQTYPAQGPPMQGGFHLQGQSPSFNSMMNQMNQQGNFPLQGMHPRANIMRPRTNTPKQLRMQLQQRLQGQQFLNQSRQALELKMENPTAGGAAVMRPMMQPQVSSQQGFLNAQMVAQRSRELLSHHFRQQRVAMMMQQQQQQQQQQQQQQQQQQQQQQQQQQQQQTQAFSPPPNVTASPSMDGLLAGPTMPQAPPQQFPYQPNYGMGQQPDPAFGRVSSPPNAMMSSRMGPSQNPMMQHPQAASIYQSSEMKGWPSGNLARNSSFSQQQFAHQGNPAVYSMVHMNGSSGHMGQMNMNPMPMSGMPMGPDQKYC
Chain of Paired box protein Pax-8 (Q06710 whole entry): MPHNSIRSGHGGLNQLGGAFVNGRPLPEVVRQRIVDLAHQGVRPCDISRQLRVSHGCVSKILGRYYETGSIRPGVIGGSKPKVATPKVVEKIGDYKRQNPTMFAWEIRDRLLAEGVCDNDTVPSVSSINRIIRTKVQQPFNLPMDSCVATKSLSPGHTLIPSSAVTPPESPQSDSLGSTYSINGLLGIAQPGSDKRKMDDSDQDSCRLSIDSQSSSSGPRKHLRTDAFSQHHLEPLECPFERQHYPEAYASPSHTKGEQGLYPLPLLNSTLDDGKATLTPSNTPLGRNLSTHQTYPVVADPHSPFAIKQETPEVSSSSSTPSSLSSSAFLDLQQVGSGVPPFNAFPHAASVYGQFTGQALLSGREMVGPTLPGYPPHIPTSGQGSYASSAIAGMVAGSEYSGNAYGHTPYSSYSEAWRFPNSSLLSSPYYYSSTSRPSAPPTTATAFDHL

O=C(Nc1ccc2c(c1)OCCO2)c1ccc(Cl)cc1Cl
AC50 [1]: > 52 µM (inactive)
AC50 [2]: > 52 µM (inactive)
AC50 [3]: 11.6 µM (active)
AC50 [4]: 15.2 µM (active)

CC(C)(O)C#Cc1cccc(-c2nc(C(=O)NCc3ccc4c(c3)OCO4)cc3c2[C@H](CCO)N([S+]([O-])C(C)(C)C)C3)c1 (stereo partly drawn)
AC50 [5]: 2.44 µM (active)

COc1cccc(-c2ccc([C@H]3[C@H](CO)N4CCCCN(C(=O)Cc5ccncc5)C[C@@H]34)cc2)c1
AC50 [5]: 2.13 µM (active)

CCC(=O)N1CC2(CCN(C(=O)Nc3ccccc3F)CC2)c2c([nH]c3cc(OC)ccc23)[C@H]1CO
AC50 [6]: 50.4 µM (active)
AC50 [7]: 0.934 µM (active)
AC50 [8]: 1.24 µM (active)
AC50 [9]: 1.2 µM (active)
AC50 [10]: 1.1 µM (active)

COc1ccc(NC(=O)Nc2cccc3c2O[C@H](CN(C)C(=O)Nc2cccc4ccccc24)[C@H](C)CN([C@@H](C)CO)C3=O)cc1
AC50 [6]: > 100 µM (inactive)
AC50 [7]: 0.971 µM (active)
AC50 [8]: 2.54 µM (active)
AC50 [9]: 1.64 µM (active)
AC50 [10]: 0.547 µM (active)

COc1cccc(CN(C)C(=O)c2ccc(OCC(=O)Nc3cccc(C(F)(F)F)c3)c(OC)c2)c1
AC50 [11]: 14.4 µM (active)
IC50 [12]: 4.57 µM (active)
AC50 [13]: 4.93 µM (active)
AC50 [14]: 3.38 µM (active)
IC50 [15]: > 80 µM (inactive)

Cc1cn(S(=O)(=O)c2ccc(Br)c3ccccc23)cn1
EC50 [16]: > 79.4 µM (not active)
EC50 [17]: > 79.4 µM (not active)
IC50 [18]: 15.5 µM (not active)
EC50 [19]: > 79.4 µM (inactive)

CCN1C(=O)/C(=C/c2ccc(C)s2)NC1=S
IC50 [20]: > 69.5 µM (inactive)
IC50 [21]: > 69.5 µM (inactive)

COc1ccccc1C#Cc1ccc([C@H]2[C@@H](C#N)N(C(=O)C3CCCC3)[C@@H]2CO)cc1
AC50 [8]: 5.1 µM (active)
AC50 [22]: > 39 µM (inactive)

C[C@H]1CN([C@@H](C)CO)C(=O)c2c(c3ccccc3n2C)-c2ccccc2CO[C@@H]1CN(C)S(=O)(=O)c1cccc(F)c1
AC50 [23]: 37.3 µM (active)
AC50 [24]: 11.6 µM (active)
AC50 [8]: 4.88 µM (active)

Cc1cc(S(=O)(=O)Nc2ccc(C(=O)NCC3(N4CCCCC4)CCCCC3)cc2)ccc1F
AC50 [25]: > 30 µM (inactive)
